The experiment has as its system A2780 cells. As to the kind of experiment: In vitro cell proliferation assay (SRB assay). The experiment is classed as cell-based. The conditions noted are these: Homo sapiens, 72 h incubation, SRB staining. The protocol: In Vitro Cell Proliferation Assay (SRB Assay)
A2780 cells were seeded in 96-well plates at 2000 cells/well in 100 μL of culture medium, 4 wells were left empty for media only controls.
After 24 h the compound titrations were performed, in a separate dilution plate, by serially diluting the compounds of general formula (I) in culture medium. A 100 μL of each dilution was added to the plated cells, this was done in quadruplicate, and controls (e.g. DMSO and blanks) were included. The plates were incubated for 72 h at 37° C. in a CO2 incubator. 50 μL cold 50% trichloroacetic acid was then added to each well. After 1 h the supernatant was discarded and the wells were washed 5 times with tap water and dried at room temperature. […] Bound stain was subsequently solubilized by addition of 200 μL 10 mM Tris pH 10.5 to each well, and the plates were shaken for at least 30 minutes, and the absorbance read on an automated plate reader at 515 nm. Using the nine absorbance measurements [time zero, (Tz), control growth, (C), and test growth in the presence of drug at the seven concentration levels (Ti)], the percentage growth is calculated at each of the drug concentrations levels after averaging the quadruplet wells. Percentage growth inhibition is calculated as: [(Ti−Tz)/(C−Tz)]×100 for concentrations for which Ti>/=Tz [(Ti−Tz)/Tz]×100 for concentrations for which Ti<Tz. […]

The term IC50 denotes the midpoint of a concentration-inhibition curve. Read a low IC50 as greater potency.

As for `O=c1c(NCCCCCCOc2ccc(Cl)cc2)c(Nc2ccncc2)c1=O` [SQ-7B, 3-(6-(4-chlorophenoxy)hexylamino)-4-(pyridine-4-ylamino)-cyclobut-3-ene-1,2-dione], the IC50 was determined as 40 nM.
